Test results: article doi:10.1101/442434v2 (biorxiv, 2018)

Assays:
[1] = target: T1, plastidic AtPGI (Arabidopsis thaliana, UniProt Q8H103); assay: biochemical
T1 sequence (Q8H103 49-613): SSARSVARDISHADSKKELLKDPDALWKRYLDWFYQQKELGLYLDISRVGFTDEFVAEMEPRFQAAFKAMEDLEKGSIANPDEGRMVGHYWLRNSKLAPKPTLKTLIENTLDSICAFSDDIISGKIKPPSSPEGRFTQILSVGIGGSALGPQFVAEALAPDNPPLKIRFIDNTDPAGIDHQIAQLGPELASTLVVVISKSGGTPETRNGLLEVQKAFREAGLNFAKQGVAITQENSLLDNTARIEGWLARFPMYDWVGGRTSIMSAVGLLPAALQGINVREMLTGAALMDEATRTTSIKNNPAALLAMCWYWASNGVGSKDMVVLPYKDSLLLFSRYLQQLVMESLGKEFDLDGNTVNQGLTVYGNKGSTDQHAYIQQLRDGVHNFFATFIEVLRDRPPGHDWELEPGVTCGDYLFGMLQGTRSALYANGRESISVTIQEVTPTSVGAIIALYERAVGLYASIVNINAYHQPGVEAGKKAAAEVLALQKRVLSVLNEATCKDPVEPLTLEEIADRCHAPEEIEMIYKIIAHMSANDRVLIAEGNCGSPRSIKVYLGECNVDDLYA

[2] = target: T2, cytosolic AtPGI (Arabidopsis thaliana, UniProt P34795); assay: coupled spectrophotometric assay; format: biochemical
T2 sequence (P34795 1-560): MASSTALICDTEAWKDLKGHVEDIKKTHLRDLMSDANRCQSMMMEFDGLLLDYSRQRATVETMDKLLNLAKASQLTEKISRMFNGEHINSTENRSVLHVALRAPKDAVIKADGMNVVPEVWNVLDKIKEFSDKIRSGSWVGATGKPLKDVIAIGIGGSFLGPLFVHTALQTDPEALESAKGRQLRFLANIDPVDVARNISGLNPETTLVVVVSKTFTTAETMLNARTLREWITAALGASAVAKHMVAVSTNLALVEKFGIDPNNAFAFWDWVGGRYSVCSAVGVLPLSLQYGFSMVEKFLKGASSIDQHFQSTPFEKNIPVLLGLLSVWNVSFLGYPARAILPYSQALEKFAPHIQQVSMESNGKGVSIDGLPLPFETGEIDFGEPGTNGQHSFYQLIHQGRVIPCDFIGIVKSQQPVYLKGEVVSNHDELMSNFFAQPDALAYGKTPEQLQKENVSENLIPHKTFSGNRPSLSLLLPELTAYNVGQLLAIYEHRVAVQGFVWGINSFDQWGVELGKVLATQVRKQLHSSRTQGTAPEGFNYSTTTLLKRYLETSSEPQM

[3] = target: T2, cytosolic AtPGI; assay: biochemical
[4] = target: T1, plastidic AtPGI; assay: coupled spectrophotometric assay; format: biochemical
[5] = target: T3, AtG6PDH2 (Arabidopsis thaliana, UniProt Q9FY99); assay: spectrophotometric NADPH formation assay; format: biochemical
T3 sequence (Q9FY99 1-596 limits assumed): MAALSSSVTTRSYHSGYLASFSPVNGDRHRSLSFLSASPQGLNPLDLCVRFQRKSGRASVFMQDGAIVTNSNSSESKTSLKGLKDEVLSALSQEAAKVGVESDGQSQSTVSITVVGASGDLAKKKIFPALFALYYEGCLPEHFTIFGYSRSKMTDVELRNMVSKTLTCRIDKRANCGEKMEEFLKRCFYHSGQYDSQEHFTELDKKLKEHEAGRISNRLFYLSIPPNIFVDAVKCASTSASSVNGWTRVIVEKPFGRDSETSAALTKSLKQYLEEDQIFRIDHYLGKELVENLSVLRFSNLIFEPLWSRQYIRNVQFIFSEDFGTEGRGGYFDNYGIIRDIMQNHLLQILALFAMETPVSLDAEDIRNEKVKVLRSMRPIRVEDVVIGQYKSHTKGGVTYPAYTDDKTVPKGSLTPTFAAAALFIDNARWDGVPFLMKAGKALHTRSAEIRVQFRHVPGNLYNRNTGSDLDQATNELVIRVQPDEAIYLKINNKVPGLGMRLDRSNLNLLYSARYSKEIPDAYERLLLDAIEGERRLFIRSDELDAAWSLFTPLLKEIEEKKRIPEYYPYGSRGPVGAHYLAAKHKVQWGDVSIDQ

[6] = target: T4, AtG6PDH3 (Arabidopsis thaliana, UniProt Q8L743); assay: spectrophotometric NADPH formation assay; format: biochemical
T4 sequence (Q8L743 1-599 limits assumed): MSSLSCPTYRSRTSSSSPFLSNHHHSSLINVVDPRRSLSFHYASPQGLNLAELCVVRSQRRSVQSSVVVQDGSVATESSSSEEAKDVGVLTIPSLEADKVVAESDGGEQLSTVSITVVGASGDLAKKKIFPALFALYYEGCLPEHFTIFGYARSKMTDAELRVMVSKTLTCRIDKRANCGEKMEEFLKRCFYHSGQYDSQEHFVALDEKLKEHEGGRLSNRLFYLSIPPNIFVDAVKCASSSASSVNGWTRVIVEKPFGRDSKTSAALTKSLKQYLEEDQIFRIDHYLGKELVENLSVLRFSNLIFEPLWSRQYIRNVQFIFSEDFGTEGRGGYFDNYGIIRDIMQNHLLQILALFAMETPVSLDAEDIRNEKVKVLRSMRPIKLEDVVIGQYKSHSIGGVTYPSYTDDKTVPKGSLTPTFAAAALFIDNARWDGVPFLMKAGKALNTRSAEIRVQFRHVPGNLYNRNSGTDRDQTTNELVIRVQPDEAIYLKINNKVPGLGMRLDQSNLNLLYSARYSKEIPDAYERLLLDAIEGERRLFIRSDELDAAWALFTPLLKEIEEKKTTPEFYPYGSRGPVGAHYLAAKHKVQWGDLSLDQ

[7] = target: T5, AtG6PDH1 (Arabidopsis thaliana, UniProt Q43727); assay: spectrophotometric NADPH formation assay; format: biochemical
T5 sequence (Q43727 1-576 limits assumed): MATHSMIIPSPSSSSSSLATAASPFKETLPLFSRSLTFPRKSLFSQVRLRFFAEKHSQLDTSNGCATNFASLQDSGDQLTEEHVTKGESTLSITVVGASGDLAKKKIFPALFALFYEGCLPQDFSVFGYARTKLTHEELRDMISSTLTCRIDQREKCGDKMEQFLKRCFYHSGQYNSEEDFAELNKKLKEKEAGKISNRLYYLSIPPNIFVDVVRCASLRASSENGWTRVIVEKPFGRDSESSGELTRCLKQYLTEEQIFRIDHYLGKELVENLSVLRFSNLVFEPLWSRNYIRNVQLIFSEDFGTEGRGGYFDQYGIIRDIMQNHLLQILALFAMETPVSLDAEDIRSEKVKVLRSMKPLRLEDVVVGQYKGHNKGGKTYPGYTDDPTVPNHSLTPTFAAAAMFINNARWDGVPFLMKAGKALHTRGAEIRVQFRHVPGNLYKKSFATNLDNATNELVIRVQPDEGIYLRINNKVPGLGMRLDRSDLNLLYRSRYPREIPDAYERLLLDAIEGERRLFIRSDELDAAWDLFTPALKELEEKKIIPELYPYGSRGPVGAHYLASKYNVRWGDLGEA

[8] = target: T3, AtG6PDH2; assay: spectrophotometric NADPH formation assay; format: biochemical; conditions: substrate inhibition; 0.6 mM NADP+; 150 mM Hepes pH 7.2
[9] = target: T5, AtG6PDH1; assay: spectrophotometric NADPH formation assay; format: biochemical; conditions: substrate inhibition; 0.6 mM NADP+; 150 mM Hepes pH 7.2
[10] = target: T4, AtG6PDH3; assay: spectrophotometric NADPH formation assay; format: biochemical; conditions: substrate inhibition; 0.6 mM NADP+; 150 mM Hepes pH 7.2
[11] = substrate: NC(=O)c1ccc[n+]([C@@H]2O[C@H](COP(=O)(O)OP(=O)(O)OC[C@H]3O[C@@H](n4cnc5c(N)ncnc54)[C@H](OP(=O)(O)O)[C@@H]3O)[C@@H](O)[C@H]2O)c1; assay: purified protein; conditions: 150 mM Hepes pH 7.2, varied: cofactor

`O=C[C@H](O)[C@H](O)COP(=O)(O)O` [erythrose 4-phosphate] gave a Ki [1] of 6 µM, a Ki [2] of 1.5 µM and a Ki [3] of 3.7 µM. It also gave a Ki [4] of 2.3 µM.

Molecule `O=C(O)[C@H](O)[C@@H](O)[C@H](O)[C@H](O)COP(=O)(O)O` [6-phosphogluconic acid] has a Ki [2] of 106 µM, a Ki [3] of 44 µM and a Ki [4] of 31 µM.

Molecule `NC(=O)C1=CN([C@@H]2O[C@H](COP(=O)(O)OP(=O)(O)OC[C@H]3O[C@@H](n4cnc5c(N)ncnc54)[C@H](OP(=O)(O)O)[C@@H]3O)[C@@H](O)[C@H]2O)C=CC1` [NADPH] has a Ki [5] of 0.9 µM, a Ki [6] of 112 µM and a Ki [7] of 59 µM.

In the case of `O=P(O)(O)OC[C@H]1OC(O)[C@H](O)[C@@H](O)[C@@H]1O` (stereo partly shown) [glucose 6-phosphate], the “G6P Ki” value [8] is reported as 30000 µM, the “G6P Ki” value [9] is reported as 18900 µM and the “G6P Ki” value [10] is reported as 37000 µM.

B1: AtG6PDH1 (Arabidopsis thaliana) (protein)
chain: T5 sequence (Q43727 1-576 limits assumed)
Molecule B1 has a Km ([11]; 7.6 mM G6P) of 0.7 µM and a kcat ([11]; 7.6 mM G6P) of 57.0 s⁻¹.

B2: AtG6PDH2 (Arabidopsis thaliana) (protein)
chain: T3 sequence (Q9FY99 1-596 limits assumed)
With B2 the Km ([11]; 15.4 mM G6P) was 1.3 µM and the kcat ([11]; 15.4 mM G6P) was 39.4 s⁻¹.

B3: AtG6PDH3 (Arabidopsis thaliana) (protein)
chain: T4 sequence (Q8L743 1-599 limits assumed)
B3 was tested, and the Km ([11]; 7.6 mM G6P) was 0.6 µM and the kcat ([11]; 7.6 mM G6P) was 14.6 s⁻¹.
